Data on 24 compounds can be found in patent US12655125B2 (SIRONAX LTD., priority 2020, dated 2026).

The experiment deals with HT-29 cells. The experiment in a line: HT29 Cells 0FBS Assay In Vitro (TNF-α/SMAC mimetic/zVAD-FMK induced necroptosis, CellTiter-Glo cell viability). Format: cell-based. Conditions: Homo sapiens; HT-29 cells, FBS free medium, TNF-α (10 ng/ml), SMAC mimetic (6 uM), zVAD-FMK (10 μM), 20 hours; geometric mean EC50; read-out: Cell activity (EC50) of Compounds 117-281. The procedure, abridged: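 HT-29 cells (5,000/well, seeded overnight) in serum-free McCoy's 5A were stimulated with TNF-α 10 ng/ml, SMAC mimetic 6 μM and zVAD-FMK 10 μM to induce necroptosis. Compound added as 10-point 3-fold series for 20 h at 37° C. CellTiter-Glo luminescence gives viability; EC50 is geometric mean of duplicate dose-responses.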
With `Cc1nn(-c2cc(OC3CN(C(=O)N4N=CC[C@H]4c4cc(F)cc(F)c4)C3)c(F)cn2)c(C)c1SCc1ccccc1` [compound 227, (S)-(3-((2-(4-(benzylthio)-3,5-dimethyl-1H-pyrazol-1-yl)-5-fluoropyridin-4-yl)oxy)azetidin-1-yl)(5-(3,5-difluorophenyl)-4,5-dihydro-1H-pyrazol-1-yl)methanone], the EC50 was 0.1 to 100 nM.
The result for `Cc1onc(N)c1-c1cc(OC2CN(C(=O)N3N=CC[C@H]3c3cc(F)cc(F)c3)C2)c(F)cn1` [compound 228, (S)-(3-((2-(3-amino-5-methylisoxazol-4-yl)-5-fluoropyridin-4-yl)oxy)azetidin-1-yl)(5-(3,5-difluorophenyl)-4,5-dihydro-1H-pyrazol-1-yl)methanone] reads 0.1 to 100 nM; that for `Cc1c(-c2cc(OC3CN(C(=O)N4N=CC[C@H]4c4cc(F)cc(F)c4)C3)c(F)cn2)nn(C)c1C(N)=O` [compound 229, (S)-3-(4-((1-(5-(3,5-difluorophenyl)-4,5-dihydro-1H-pyrazole-1-carbonyl)azetidin-3-yl)oxy)-5-fluoropyridin-2-yl)-1,4-dimethyl-1H-pyrazole-5-carboxamide], 0.1 to 100 nM.
Then `CNS(=O)(=O)c1c(C)nn(-c2cc(OC3CN(C(=O)N4N=CC[C@H]4c4cc(F)cc(F)c4)C3)c(F)cn2)c1C` [compound 230, (S)-1-(4-((1-(5-(3,5-difluorophenyl)-4,5-dihydro-1H-pyrazole-1-carbonyl)azetidin-3-yl)oxy)-5-fluoropyridin-2-yl)-N,3,5-trimethyl-1H-pyrazole-4-sulfonamide], with 0.1 to 100 nM.
The result for `CCNC(=O)c1c(C)nn(-c2cc(OC3CN(C(=O)N4N=CC[C@H]4c4cc(F)cc(F)c4)C3)c(F)cn2)c1C` [compound 231, (S)-1-(4-((1-(5-(3,5-difluorophenyl)-4,5-dihydro-1H-pyrazole-1-carbonyl)azetidin-3-yl)oxy)-5-fluoropyridin-2-yl)-N-ethyl-3,5-dimethyl-1H-pyrazole-4-carboxamide] reads 0.1 to 100 nM.
Consider `Cc1nn(-c2cc(OC3CN(C(=O)N4N=CC[C@H]4c4cc(F)cc(F)c4)C3)c(F)cn2)c(C)c1C(=O)NC1CC1` [compound 232, (S)—N-cyclopropyl-1-(4-((1-(5-(3,5-difluorophenyl)-4,5-dihydro-1H-pyrazole-1-carbonyl)azetidin-3-yl)oxy)-5-fluoropyridin-2-yl)-3,5-dimethyl-1H-pyrazole-4-carboxamide], for which the EC50 is 0.1 to 100 nM.
Then `Cc1nn(-c2cc(OC3CN(C(=O)N4N=CC[C@H]4c4cc(F)cc(F)c4)C3)c(F)cn2)c(C)c1C(=O)O` [compound 233, (S)-1-(4-((1-(5-(3,5-difluorophenyl)-4,5-dihydro-1H-pyrazole-1-carbonyl)azetidin-3-yl)oxy)-5-fluoropyridin-2-yl)-3,5-dimethyl-1H-pyrazole-4-carboxylic acid], with 0.1 to 100 nM; and `Cc1nn(-c2cc(OC3CN(C(=O)N4N=CCC4c4cc(F)cc(F)c4)C3)c(F)cn2)c(C)c1C(N)=O` (stereo not drawn) [compound 234, 1-(4-((1-(5-(3,5-difluorophenyl)-4,5-dihydro-1H-pyrazole-1-carbonyl)azetidin-3-yl)oxy)-5-fluoropyridin-2-yl)-3,5-dimethyl-1H-pyrazole-4-carboxamide], with 0.1 to 100 nM; and `Cc1nn(-c2cc(OC3CN(C(=O)N4N=CC[C@H]4c4cc(F)cc(F)c4)C3)c(F)cn2)c(C)c1S(=O)(=O)NC1CCC1` [compound 235, (S)—N-cyclobutyl-1-(4-((1-(5-(3,5-difluorophenyl)-4,5-dihydro-1H-pyrazole-1-carbonyl)azetidin-3-yl)oxy)-5-fluoropyridin-2-yl)-3,5-dimethyl-1H-pyrazole-4-sulfonamide], with 0.1 to 100 nM.
Then `Cc1nn(-c2cc(OC3CN(C(=O)N4N=CC[C@H]4c4cc(F)cc(F)c4)C3)c(F)cn2)c(C)c1S(=O)(=O)Cc1ccccc1` [compound 236, (S)-(3-((2-(4-(benzylsulfonyl)-3,5-dimethyl-1H-pyrazol-1-yl)-5-fluoropyridin-4-yl)oxy)azetidin-1-yl)(5-(3,5-difluorophenyl)-4,5-dihydro-1H-pyrazol-1-yl)methanone], with 0.1 to 100 nM; and `Cc1c(-c2cc(OC3CN(C(=O)N4N=CC[C@H]4c4cc(F)cc(F)c4)C3)c(F)cn2)nn(C)c1C#N` [compound 237, (S)-3-(4-((1-(5-(3,5-difluorophenyl)-4,5-dihydro-1H-pyrazole-1-carbonyl)azetidin-3-yl)oxy)-5-fluoropyridin-2-yl)-1,4-dimethyl-1H-pyrazole-5-carbonitrile], with 0.1 to 100 nM.
The result for `Cc1cn(C)c(=O)n1-c1cc(OC2CN(C(=O)N3N=CC[C@H]3c3cc(F)cc(F)c3)C2)c(F)cn1` [compound 238, (S)-3-(4-((1-(5-(3,5-difluorophenyl)-4,5-dihydro-1H-pyrazole-1-carbonyl)azetidin-3-yl)oxy)-5-fluoropyridin-2-yl)-1,4-dimethyl-1,3-dihydro-2H-imidazol-2-one] reads 100 to 1000 nM; that for `Cc1nn(-c2cc(OC3CN(C(=O)N4N=CC[C@H]4c4cc(F)cc(F)c4)C3)c(F)cn2)c(C)c1CC(=O)N(C)C` [compound 239, (S)-2-(1-(4-((1-(5-(3,5-difluorophenyl)-4,5-dihydro-1H-pyrazole-1-carbonyl)azetidin-3-yl)oxy)-5-fluoropyridin-2-yl)-3,5-dimethyl-1H-pyrazol-4-yl)-N,N-dimethylacetamide], 0.1 to 100 nM.
Turning to `Cc1nn(-c2cc(OC3CN(C(=O)N4N=CC[C@H]4c4cc(F)cc(F)c4)C3)c(F)cn2)c(C)c1S(=O)(=O)NC1COC1` [compound 240], the EC50 is 0.1 to 100 nM.
Then `Cc1nn(-c2cc(OC3CN(C(=O)N4N=CC[C@H]4c4cc(F)cc(F)c4)C3)c(F)cn2)c(C)c1S(=O)(=O)NC1CCOCC1` [compound 241, (S)-1-(4-((1-(5-(3,5-difluorophenyl)-4,5-dihydro-1H-pyrazole-1-carbonyl)azetidin-3-yl)oxy)-5-fluoropyridin-2-yl)-3,5-dimethyl-N-(tetrahydro-2H-pyran-4-yl)-1H-pyrazole-4-sulfonamide], with 0.1 to 100 nM; and `Cc1nn(-c2cc(OC3CN(C(=O)N4N=CC[C@H]4c4cc(F)cc(F)c4)C3)c(F)cn2)c(C)c1S(=O)(=O)NC1CCCCC1` [compound 242, (S)—N-cyclohexyl-1-(4-((1-(5-(3,5-difluorophenyl)-4,5-dihydro-1H-pyrazole-1-carbonyl)azetidin-3-yl)oxy)-5-fluoropyridin-2-yl)-3,5-dimethyl-1H-pyrazole-4-sulfonamide], with 0.1 to 100 nM; and `Cc1nn(-c2cc(OC3CN(C(=O)N4N=CC[C@H]4c4cc(F)cc(F)c4)C3)c(F)cn2)c(C)c1S(=O)(=O)Nc1ccccc1` [compound 243, (S)-1-(4-((1-(5-(3,5-difluorophenyl)-4,5-dihydro-1H-pyrazole-1-carbonyl)azetidin-3-yl)oxy)-5-fluoropyridin-2-yl)-3,5-dimethyl-N-phenyl-1H-pyrazole-4-sulfonamide], with 0.1 to 100 nM.
Then `Cc1nn(-c2cc(OC3CN(C(=O)N4N=CC[C@H]4c4cc(F)cc(F)c4)C3)c(F)cn2)c(C)c1S(=O)(=O)NCCO` [compound 244, (S)-1-(4-((1-(5-(3,5-difluorophenyl)-4,5-dihydro-1H-pyrazole-1-carbonyl)azetidin-3-yl)oxy)-5-fluoropyridin-2-yl)-N-(2-hydroxyethyl)-3,5-dimethyl-1H-pyrazole-4-sulfonamide], with 0.1 to 100 nM; and `Cc1c(-c2cc(OC3CN(C(=O)N4N=CC[C@H]4c4cc(F)cc(F)c4)C3)c(F)cn2)nn(C)c1C(=O)O` [compound 245, (S)-3-(4-((1-(5-(3,5-difluorophenyl)-4,5-dihydro-1H-pyrazole-1-carbonyl)azetidin-3-yl)oxy)-5-fluoropyridin-2-yl)-1,4-dimethyl-1H-pyrazole-5-carboxylic acid], with 0.1 to 100 nM.
Regarding `CNC(=O)c1c(C)c(-c2cc(OC3CN(C(=O)N4N=CC[C@H]4c4cc(F)cc(F)c4)C3)c(F)cn2)nn1C` [compound 246, (S)-3-(4-((1-(5-(3,5-difluorophenyl)-4,5-dihydro-1H-pyrazole-1-carbonyl)azetidin-3-yl)oxy)-5-fluoropyridin-2-yl)-N,1,4-trimethyl-1H-pyrazole-5-carboxamide], the EC50 is 0.1 to 100 nM.
The result for `Cc1c(-c2cc(OC3CN(C(=O)N4N=CC[C@H]4c4cc(F)cc(F)c4)C3)c(F)cn2)nn(C)c1C(=O)NC1CCOCC1` [compound 247, (S)-3-(4-((1-(5-(3,5-difluorophenyl)-4,5-dihydro-1H-pyrazole-1-carbonyl)azetidin-3-yl)oxy)-5-fluoropyridin-2-yl)-1,4-dimethyl-N-(tetrahydro-2H-pyran-4-yl)-1H-pyrazole-5-carboxamide] reads 0.1 to 100 nM; that for `CONS(=O)(=O)c1c(C)nn(-c2cc(OC3CN(C(=O)N4N=CC[C@H]4c4cc(F)cc(F)c4)C3)c(F)cn2)c1C` [compound 248, (S)-1-(4-((1-(5-(3,5-difluorophenyl)-4,5-dihydro-1H-pyrazole-1-carbonyl)azetidin-3-yl)oxy)-5-fluoropyridin-2-yl)-N-methoxy-3,5-dimethyl-1H-pyrazole-4-sulfonamide], 0.1 to 100 nM.
As for `Cc1nn(-c2cc(OC3CN(C(=O)N4N=CC[C@H]4c4cc(F)cc(F)c4)C3)c(F)cn2)c(C)c1C(=O)NC1CCC1` [compound 249, (S)—N-cyclobutyl-1-(4-((1-(5-(3,5-difluorophenyl)-4,5-dihydro-1H-pyrazole-1-carbonyl)azetidin-3-yl)oxy)-5-fluoropyridin-2-yl)-3,5-dimethyl-1H-pyrazole-4-carboxamide], the EC50 is 0.1 to 100 nM.
Take `Cn1nccc1-c1cc(OC2CN(C(=O)N3N=CCC3c3cc(F)cc(F)c3)C2)c(F)cn1` (stereo not drawn) [compound 250, (5-(3,5-difluorophenyl)-4,5-dihydro-1H-pyrazol-1-yl)(3-((5-fluoro-2-(1-methyl-1H-pyrazol-5-yl)pyridin-4-yl)oxy)azetidin-1-yl)methanone]: the EC50 fell in the range of 0.1 to 100 nM.
